{
  "source": "paper PMC5766581",
  "about": "“NF-κB inducing kinase is a therapeutic target for systemic lupus erythematosus” (Nature Communications, 2018)",
  "key": {"human B cells [1]": {"test_system": "human B cells", "assay": "Human B cell anti-IgM proliferation assay", "assay_type": "cell-based", "settings": "thymidine incorporation, day four"}, "[2]": {"test_system": "rhCD40L induced ICOSL expression on human B cells", "assay": "ICOSL expression on human B cell assay", "assay_type": "cell-based", "settings": "ICOSL MFI by FACS, mean ± SD, read-out: CD40-induced ICOSL IC50", "protocol": "Human B cells were isolated from whole blood. B cells were enriched by RosetteSep protocol (Stem Cell Technologies), and then isolated using Human B cell isolation kit II (Miltenyi). […] Mean fluorescent intensity (MFI) of CD40L and BAFF induced ICOSL expression was measured by flow cytometry on cells stained with anti-CD20 and anti-ICOSL, using a FACS Calibur instrument (BD). Plots and IC50 measurements were generated using GraphPad Prism Software."}, "mouse B cells": {"test_system": "mouse B cells", "assay": "BAFF B cell survival assay (Cell Titer Glo)", "assay_type": "cell-based", "settings": "BAFF induced; mean ± SD"}, "Balb/c mice": {"test_system": "Balb/c mice", "assay": "TNP-OVA immunization model", "assay_type": "in vivo, mouse", "settings": "300 mg/kg P.O. BID, 10 days", "description": "Four to nine 8-week-old female Balb/c mice were randomized into experimental groups upon delivery from vendor. […] Investigators were not blinded to experimental samples."}, "[3]": {"test_system": "IL-12p40 production from human monocyte derived DC", "assay": "CD40L induced IL-12p40 production from human DCs", "assay_type": "cell-based", "settings": "human monocyte derived DC, rhCD40L; mean ± SD; read-out: CD40-induced IL-12 p40 IC50", "protocol": "Human monocytes were enriched from whole blood (Monocyte enrichment RosetteSep, Stem Cell) followed by isolation using Monocyte Isolation Kit II (Miltenyi). Isolated monocytes were cultured (RPMI-10% FBS, penicillin/streptomycin, glutamine) with rhGM-CSF (100 ng/mL) and rhIL-4 (6.5 ng/mL) (R&D Systems) for 5 days with GM-CSF replacement on day 3. On Day 5 immature monocyte derived DCs were monitored for differentiation by flow cytometry ([…], CD83^low CD86^low CD209^+/hi). […] After 24 h plates were centrifuged and supernatants were removed for IL-12p40 cytokine measurement by ELISA (BD Biosciences). Plots and IC50 measurements were generated using GraphPad Prism software."}, "mouse NIK": {"molecular_target": "T1, mouse NIK (Mus musculus, UniProt Q9WUL6)", "T1 construct": "mouse NIK kinase domain (a.a. 329–675) (1 nM); made in house; host or cells: baculovirus-infected insect cells", "T1 sequence (Q9WUL6 329-675)": "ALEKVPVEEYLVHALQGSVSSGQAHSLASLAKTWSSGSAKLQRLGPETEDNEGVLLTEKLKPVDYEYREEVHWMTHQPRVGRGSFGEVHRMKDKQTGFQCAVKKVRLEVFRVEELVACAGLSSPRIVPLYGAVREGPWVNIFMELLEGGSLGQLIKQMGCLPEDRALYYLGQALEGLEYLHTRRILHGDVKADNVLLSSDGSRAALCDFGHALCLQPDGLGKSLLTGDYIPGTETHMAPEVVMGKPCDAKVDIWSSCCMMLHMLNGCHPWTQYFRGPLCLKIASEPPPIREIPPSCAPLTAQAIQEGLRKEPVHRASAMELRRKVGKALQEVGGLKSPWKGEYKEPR", "assay": "NIK Transcreener ADP enzymatic assay", "assay_type": "biochemical", "settings": "mouse NIK enzymatic activity; mean ± SD"}, "[4]": {"test_system": "nuclear p52 (non-canonical NF-κB signaling)", "assay": "High content nuclear p52 imaging, anti-LTβR-stimulated HeLa cells", "assay_type": "cell-based, human", "settings": "anti-LTβR induced, mean ± SD", "protocol": "(§1) The HeLa cell line was used to define the cellular selectivity of NIK inhibitors toward inhibition of classical vs. non-classical NF-κB signaling using high content cellular imaging assays. For the nuclear translocation assay p52 (non-canonical NF-κB signaling), HeLa cells were treated with different concentrations of compounds previously diluted in DMSO (final [DMSO] = 0.2% in all wells) in DMEM medium (10% FBS, 2 mM Glutamine) and then stimulated with 300 ng/mL of an anti-lymphotoxin beta receptor antibody for 4.5 h. In the REL-A nuclear translocation assay, HeLa cells were incubated with compounds for 4 h 50 min before stimulating them with 2 ng/mL TNF (R&D Systems) for 10 min. Cells were fixed with 4% paraformaldehyde, permeabilized by adding 0.1% Triton X-100 in phosphate buffered saline, and then are incubated with either 2 μg/mL anti-p52 antibody or 400 ng/mL anti-REL-A (p65) antibody. Finally, the cells are incubated with an Alexa488-labeled secondary antibody (Invitrogen) and DRAQ5 DNA stain (Biostatus). Imaging was carried out using an Opera reader (Perkin Elmer) and data were analyzed with Acapella software (Perkin Elmer). The p52 or REL-A translocation into the nucleus is quantified by the ratio of the nuclear to cytoplasmic signal intensity."}, "human B cells [5]": {"test_system": "human B cells", "assay": "Human B cell rhCD40L proliferation assay", "assay_type": "cell-based", "settings": "thymidine incorporation, day four; read-out: Human B cell anti-CD40 proliferation IC50"}, "[6]": {"test_system": "nuclear RelA (canonical NF-κB signaling)", "assay": "High content nuclear RelA imaging, TNF-stimulated HeLa cells", "assay_type": "cell-based, human", "settings": "TNF induced", "protocol": "as §1"}, "human B cells [7]": {"test_system": "human B cells", "assay": "BAFF B cell survival assay (Cell Titer Glo)", "assay_type": "cell-based", "settings": "BAFF induced; mean ± SD", "protocol": "Human B cells were isolated using Miltenyi Human B cell isolation kit following ficoll separation of buffy coats. […] Mouse B cells were isolated from mouse spleen using Miltenyi mouse B cell isolation kit II. Cells were plated in Co-star 96-well plates at either 50,000 cells/well for the survival assays or at 150,000 cells/well for the proliferation assays. Compounds diluted in DMSO (final DMSO assay concentration = 0.1%) were added to the cells. The cells were incubated with compound for one hour at 37 °C. Stimulus was then added to the plates and survival or proliferation was measured after four days. For the proliferation assays, cells were treated with either Anti-IgM (20 μg/mL) or rhCD40L (10 μg/mL; R&D) or anti-mouse CD40 (100 ng/mL). Proliferation was measured using thymidine incorporation on day four. For the BAFF survival assay, cells were treated with human or mouse rBAFF (R&D Systems) at 10 ng/ml followed by Cell Titer Glo (Promega) to measure survival on day four."}},
  "data": [
    {"smiles": "CN1CC[C@@](O)(C#Cc2cccc(-n3nc(C(N)=O)c4ccccc43)c2)C1=O", "note": "[NIK SMI2]", "values": [
      {"measurement": "IC50", "setting": "human B cells [1]", "value": "> 10000", "unit": "nM"},
      {"measurement": "IC50", "setting": "[2]", "value": 58.7, "unit": "nM"},
      {"measurement": "IC50", "setting": "mouse B cells", "value": 1750, "unit": "nM"},
      {"measurement": "germinal center B cell development and antigen-specific IgG1 production", "setting": "Balb/c mice", "value": "reduced"},
      {"measurement": "IC50", "setting": "[3]", "value": 60.7, "unit": "nM"},
      {"measurement": "Ki", "setting": "mouse NIK", "value": 0.84, "unit": "nM"},
      {"measurement": "IC50", "setting": "[4]", "value": 43, "unit": "nM"},
      {"measurement": "IC50", "setting": "human B cells [5]", "value": "> 10000", "unit": "nM"},
      {"measurement": "IC50", "setting": "[6]", "value": "> 2000", "unit": "nM"},
      {"measurement": "IC50", "setting": "human B cells [7]", "value": 360, "unit": "nM"}
    ]}
  ]
}
